Data on 52 molecules can be found in ChEMBL document CHEMBL3132806, “Dual mode of action of phenyl-pyrazole-phenyl (6-5-6 system)-based PPI inhibitors: alpha-helix backbone versus alpha-helix binding epitope” (Medchemcomm, 2013).

Some results are limits rather than exact numbers.

Broadly, the IC50 is the midpoint of a concentration-inhibition curve. Read a high IC50 as lower potency.

The nature of series [1]: Kinetic solubility of the compound in PBS buffer. It counts as physicochemical.
The target in series [2] is Tumour suppressor p53/oncoprotein Mdm2 (Homo sapiens, UniProt Q00987). Put plainly: Inhibition of 6His-tagged MDM2 (1 to 118) interaction to FITC-tagged p53 (17 to 26) (unknown origin) after 30 mins by fluorescence polarization assay. It counts as protein assay. Background: Fluorescence polarisation rises when a labelled molecule tumbles more slowly, as on binding a larger partner.
Sequence of Tumour suppressor p53/oncoprotein Mdm2 (P04637 whole entry): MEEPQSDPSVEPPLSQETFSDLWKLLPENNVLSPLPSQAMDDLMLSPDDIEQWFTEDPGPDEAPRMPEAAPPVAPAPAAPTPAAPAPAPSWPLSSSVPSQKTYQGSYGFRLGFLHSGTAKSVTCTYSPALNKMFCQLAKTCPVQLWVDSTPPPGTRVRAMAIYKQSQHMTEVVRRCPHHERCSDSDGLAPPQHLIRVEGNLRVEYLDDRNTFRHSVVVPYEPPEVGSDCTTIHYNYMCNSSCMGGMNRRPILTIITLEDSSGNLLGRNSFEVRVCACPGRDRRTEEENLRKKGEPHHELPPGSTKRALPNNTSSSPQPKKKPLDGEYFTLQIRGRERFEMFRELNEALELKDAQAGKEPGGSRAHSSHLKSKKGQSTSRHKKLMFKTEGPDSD
Sequence of Tumour suppressor p53/oncoprotein Mdm2 (Q00987 whole entry): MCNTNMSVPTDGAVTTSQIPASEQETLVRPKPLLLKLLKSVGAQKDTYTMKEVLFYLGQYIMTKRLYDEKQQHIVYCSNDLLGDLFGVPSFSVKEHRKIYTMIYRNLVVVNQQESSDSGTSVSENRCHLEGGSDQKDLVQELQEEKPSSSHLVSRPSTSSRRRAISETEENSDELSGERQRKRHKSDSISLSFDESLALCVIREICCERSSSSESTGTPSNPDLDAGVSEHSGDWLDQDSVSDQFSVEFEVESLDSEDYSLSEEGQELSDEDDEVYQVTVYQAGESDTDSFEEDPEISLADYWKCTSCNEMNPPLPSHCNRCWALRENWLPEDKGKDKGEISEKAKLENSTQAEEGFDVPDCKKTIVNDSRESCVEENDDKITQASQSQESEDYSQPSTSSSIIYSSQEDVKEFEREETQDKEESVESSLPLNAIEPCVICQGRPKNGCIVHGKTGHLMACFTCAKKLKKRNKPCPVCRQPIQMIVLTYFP

The molecule `CCCOc1ccc(CC(=O)O)cc1-c1cc(-c2ccccc2OCC)n(CCc2ccccc2)n1` had a Kinetic_solubility in series [1] of 0.066 Ug/ml. In addition, the IC50 in series [2] stood at 72 µM.
As for `CCOc1ccc(C(=O)O)cc1-c1cc(-c2ccccc2OCC)n(Cc2ccccc2)n1`, the Kinetic_solubility in series [1] was 0.066 Ug/ml. This molecule also registered an IC50 in series [2] of 111 µM.
As for `COc1ccc(C(=O)O)cc1-c1cc(-c2cccc(OC)c2OC)n(CCc2ccccc2)n1`, the Kinetic_solubility in series [1] was greater than 0.2 Ug/ml. The molecule also showed an IC50 in series [2] of 186 µM.
For `COc1cccc(-c2cc(-c3cc(C(=O)O)ccc3OCC(C)C)nn2CCc2ccccc2)c1OC`, in that order: 0.056 Ug/ml and 8.22 µM.
For `CCOc1ccc(C(=O)O)cc1-c1cc(-c2cccc(OC)c2OC)n(CCc2ccccc2)n1` the same measures were greater than 0.2 Ug/ml and 14 µM.
`COc1cccc(-c2cc(-c3cc(CC(=O)O)ccc3OCC(C)C)nn2Cc2ccccc2)c1OC` had a Kinetic_solubility in series [1] greater than 0.2 Ug/ml. In addition, in series [2], the IC50 is 120 µM.
`CCOc1ccc(CCC(=O)O)cc1-c1cc(-c2ccc(F)cc2)n(CCc2ccccc2)n1`: the Kinetic_solubility in series [1] was greater than 0.2 Ug/ml. In series [2], this molecule had an IC50 of 35.8 µM.
`O=C(O)CCc1ccc(OCc2cccc(Cl)c2)c(-c2cc(-c3ccc(F)cc3)n(Cc3ccccc3)n2)c1`: the Kinetic_solubility in series [1] is less than 0.015 Ug/ml. This molecule yielded an IC50 in series [2] of 51.9 µM.
As for `CCOc1ccc(CC(=O)O)cc1-c1cc(-c2ccccc2OCC)n(CCc2ccccc2)n1`, in series [1], the Kinetic_solubility was greater than 0.2 Ug/ml. The molecule also registered an IC50 in series [2] of 102 µM.
For the molecule `CCOc1ccccc1-c1cc(-c2ccc(C(=O)O)cc2)nn1CCc1ccccc1`, the Kinetic_solubility in series [1] is given as greater than 0.2 Ug/ml. Further, it took 91.2 µM to reach half-maximal inhibition in series [2] (IC50).
For `CCOc1ccccc1-c1cc(-c2cc(C(=O)O)ccc2OC)nn1Cc1ccccc1`, in that order: 0.039 Ug/ml and 238 µM.
In the case of `CCOc1ccc(C(=O)O)cc1-c1cc(-c2cccc(OC)c2OC)n(Cc2ccccc2)n1`, the Kinetic_solubility in series [1] is on record as 0.138 Ug/ml. Also, the IC50 in series [2] turned out to be 295 µM.
On to `COc1cccc(-c2cc(-c3cc(CC(=O)O)ccc3OCC(C)C)nn2CCc2ccccc2)c1OC`, for which the Kinetic_solubility in series [1] is reported as 0.056 Ug/ml. In series [2], this molecule gave an IC50 of 68.3 µM.
The molecule `COc1cccc(-c2cc(-c3cc(CCC(=O)O)ccc3OCc3cccc(Cl)c3)nn2CCc2ccccc2)c1OC` registered a Kinetic_solubility in series [1] of less than 0.015 Ug/ml. Also, in series [2], the IC50 came out at 34 µM.
For `COc1ccc(CCC(=O)O)cc1-c1cc(-c2cccc(OC)c2OC)n(CCc2ccccc2)n1`, the Kinetic_solubility in series [1] is greater than 0.2 Ug/ml. The IC50 in series [2] stood at 436 µM.
`COc1ccc(CC(=O)O)cc1-c1cc(-c2cccc(OC)c2OC)n(CCc2ccccc2)n1` registered a Kinetic_solubility in series [1] greater than 0.2 Ug/ml. Also, in series [2], half-maximal inhibition (IC50) was put at 727 µM.
As for `O=C(O)Cc1ccc(OCc2ccccc2Cl)c(-c2cc(-c3ccc(F)cc3)n(Cc3ccccc3)n2)c1`, in series [1], the Kinetic_solubility is less than 0.015 Ug/ml. Also, the IC50 in series [2] was 130 µM.
In series [1], `COc1ccc(CCC(=O)O)cc1-c1cc(-c2ccc(Cl)cc2)n(CCc2ccccc2)n1` came in with a Kinetic_solubility of 0.046 Ug/ml. Also, inhibition in series [2] was half-maximal at 38.9 µM (IC50).
In the case of `CCOc1ccccc1-c1cc(-c2cc(CCC(=O)O)ccc2OC)nn1Cc1ccccc1`, the Kinetic_solubility in series [1] was greater than 0.2 Ug/ml. Moreover, in series [2], the concentration for half-maximal inhibition (IC50) is 388 µM.
Turning to `CCOc1ccccc1-c1cc(-c2cc(CC(=O)O)ccc2OC)nn1CCc1ccccc1`, the Kinetic_solubility in series [1] is listed as greater than 0.2 Ug/ml. In series [2], this molecule returned an IC50 of 339 µM.
For `CCOc1ccccc1-c1cc(-c2cc(CC(=O)O)ccc2OCc2cccc(Cl)c2)nn1Cc1ccccc1`, in that order: less than 0.015 Ug/ml and 54.4 µM.
`CCOc1ccc(CCC(=O)O)cc1-c1cc(-c2ccc(F)cc2)n(Cc2ccccc2)n1` yielded a Kinetic_solubility in series [1] of less than 0.015 Ug/ml. Also, in series [2], half-maximal inhibition (IC50) was put at 101 µM.
The molecule `CCCOc1ccc(CC(=O)O)cc1-c1cc(-c2cccc(OC)c2OC)n(Cc2ccccc2)n1` gave a Kinetic_solubility in series [1] greater than 0.2 Ug/ml. Also, inhibition in series [2] was half-maximal at 329 µM (IC50).
In series [1], `CCCOc1ccc(C(=O)O)cc1-c1cc(-c2cccc(OC)c2OC)n(Cc2ccccc2)n1` had a Kinetic_solubility greater than 0.2 Ug/ml. In series [2], this molecule registered an IC50 of 79.3 µM.
In series [1], `CCOc1ccccc1-c1cc(-c2cc(CC(=O)O)ccc2OCC(C)C)nn1CCc1ccccc1` yielded a Kinetic_solubility of 0.046 Ug/ml. This molecule also showed an IC50 in series [2] of 48.7 µM.
In turn, `COc1ccc(CC(=O)O)cc1-c1cc(-c2cccc(OC)c2OC)n(Cc2ccccc2)n1` showed a Kinetic_solubility in series [1] greater than 0.2 Ug/ml. In series [2], this molecule gave an IC50 of 967 µM.
In turn, `CCOc1ccccc1-c1cc(-c2cc(C(=O)O)ccc2OC)nn1CCc1ccccc1` had a Kinetic_solubility in series [1] greater than 0.2 Ug/ml. In series [2], it took 232 µM to reach half-maximal inhibition (IC50).
For `CCOc1ccc(CCC(=O)O)cc1-c1cc(-c2cccc(OC)c2OC)n(Cc2ccccc2)n1`, in that order: greater than 0.2 Ug/ml and 353 µM.
In the case of `CCCCOc1ccc(C(=O)O)cc1-c1cc(-c2cccc(OC)c2OC)n(CCc2ccccc2)n1`, the Kinetic_solubility in series [1] is 0.066 Ug/ml. This molecule came in with an IC50 in series [2] of 14.2 µM.
In turn, `CCCOc1ccc(C(=O)O)cc1-c1cc(-c2cccc(OC)c2OC)n(CCc2ccccc2)n1` gave a Kinetic_solubility in series [1] of 0.117 Ug/ml. Half-maximal inhibition in series [2] (IC50) was put at 6.56 µM.
For `O=C(O)CCc1ccc(OCc2cccc(Cl)c2)c(-c2cc(-c3ccc(F)cc3)n(CCc3ccccc3)n2)c1`, in that order: less than 0.015 Ug/ml and 47.8 µM.
For `CCCOc1ccc(C(=O)O)cc1-c1cc(-c2ccccc2OCC)n(Cc2ccccc2)n1` the same measures were 0.096 Ug/ml and 68.8 µM.
In series [1], `COc1ccc(CCC(=O)O)cc1-c1cc(-c2cccc(OC)c2OC)n(Cc2ccccc2)n1` showed a Kinetic_solubility of 0.169 Ug/ml. Besides, in series [2], the IC50 is 449 µM.
For `COc1ccc(CCC(=O)O)cc1-c1cc(-c2ccc(Cl)cc2)n(Cc2ccccc2)n1`, in that order: 0.019 Ug/ml and 86.6 µM.
For `CCCCOc1ccc(CC(=O)O)cc1-c1cc(-c2cccc(OC)c2OC)n(Cc2ccccc2)n1` the same measures were greater than 0.2 Ug/ml and 118 µM.
Turning to `COc1ccc(C(=O)O)cc1-c1cc(-c2cccc(OC)c2OC)n(Cc2ccccc2)n1`, the Kinetic_solubility in series [1] is greater than 0.2 Ug/ml. The molecule also had an IC50 in series [2] of 1020 µM.
In the case of `CCOc1ccc(CC(=O)O)cc1-c1cc(-c2cccc(OC)c2OC)n(Cc2ccccc2)n1`, in series [1], the Kinetic_solubility is reported as greater than 0.2 Ug/ml. In series [2], this molecule gave a concentration for half-maximal inhibition (IC50) of 348 µM.
For `CCOc1ccccc1-c1cc(-c2cc(CC(=O)O)ccc2OC)nn1Cc1ccccc1`, the Kinetic_solubility in series [1] was determined as 0.138 Ug/ml. The molecule also returned an IC50 in series [2] of 288 µM.
With `COc1cccc(-c2cc(-c3cc(CCC(=O)O)ccc3OCc3cccc(Cl)c3)nn2Cc2ccccc2)c1OC`, the Kinetic_solubility in series [1] is listed as less than 0.015 Ug/ml. In addition, half-maximal inhibition in series [2] (IC50) was put at 31.6 µM.
As to `CCCCOc1ccc(CC(=O)O)cc1-c1cc(-c2cccc(OC)c2OC)n(CCc2ccccc2)n1`, the Kinetic_solubility in series [1] came to 0.117 Ug/ml. The molecule further yielded a half-maximal inhibitory concentration (IC50) in series [2] of 116 µM.
`CCOc1ccc(C(=O)O)cc1-c1cc(-c2ccccc2OCC)n(CCc2ccccc2)n1`: the Kinetic_solubility in series [1] came out at 0.022 Ug/ml. The molecule also yielded an IC50 in series [2] of 10.7 µM.
For `CCOc1ccccc1-c1cc(-c2cc(C(=O)O)ccc2OCC(C)C)nn1CCc1ccccc1` the same measures were 0.015 Ug/ml and 14.2 µM.
As for `CCCCOc1ccc(CC(=O)O)cc1-c1cc(-c2ccccc2OCC)n(CCc2ccccc2)n1`, the Kinetic_solubility in series [1] is listed as 0.096 Ug/ml. The midpoint of inhibition in series [2], the IC50, lay at 54.1 µM.
In turn, `CCOc1ccccc1-c1cc(-c2cc(CC(=O)O)ccc2OCc2cccc(Cl)c2)nn1CCc1ccccc1` had a Kinetic_solubility in series [1] of less than 0.015 Ug/ml. The IC50 in series [2] stood at 249 µM.
`CCCOc1ccc(CC(=O)O)cc1-c1cc(-c2cccc(OC)c2OC)n(CCc2ccccc2)n1`: the Kinetic_solubility in series [1] is recorded as 0.117 Ug/ml. This molecule returned an IC50 in series [2] of 60.6 µM.
Turning to `COc1ccc(CC(=O)O)cc1-c1cc(-c2ccc(F)cc2)n(Cc2ccccc2)n1`, the Kinetic_solubility in series [1] is reported as greater than 0.2 Ug/ml. Moreover, the IC50 in series [2] is 595 µM.
The molecule `CCOc1ccc(CCC(=O)O)cc1-c1cc(-c2ccccc2OCC)n(CCc2ccccc2)n1` yielded a Kinetic_solubility in series [1] of 0.102 Ug/ml. For the same molecule, the half-maximal inhibitory concentration (IC50) in series [2] came to 105 µM.
In series [1], `O=C(O)c1ccc(-c2cc(-c3ccc(F)cc3)n(CCc3ccccc3)n2)cc1` had a Kinetic_solubility of 0.096 Ug/ml. Half-maximal inhibition in series [2] (IC50) required 128 µM.
Turning to `COc1ccc(CCC(=O)O)cc1-c1cc(-c2ccc(F)cc2)n(Cc2ccccc2)n1`, the Kinetic_solubility in series [1] was determined as 0.066 Ug/ml. This molecule also came in with an IC50 in series [2] of 17 µM.
For `CCCCOc1ccc(C(=O)O)cc1-c1cc(-c2ccccc2OCC)n(CCc2ccccc2)n1`, in that order: 0.032 Ug/ml and 16.8 µM.
Consider `CCOc1ccccc1-c1cc(-c2cc(CCC(=O)O)ccc2OC)nn1CCc1ccccc1`, for which, in series [1], the Kinetic_solubility is reported as greater than 0.2 Ug/ml. For the same molecule, half-maximal inhibition in series [2] (IC50) was put at 258 µM.
With `CCOc1ccccc1-c1cc(-c2ccc(C(=O)O)cc2)nn1Cc1ccccc1`, the Kinetic_solubility in series [1] is listed as 0.117 Ug/ml. In series [2], the half-inhibitory concentration (IC50) was found to be 346 µM.
